Test [1] has as its system MDA-MB-468. As to the kind of experiment: Anti-tumor effect in MDA-MB-468 subcutaneous xenograft model. The class given is in vivo, human. Particulars: MDA-MB-468 xenograft in nude mice; methanesulfonate 100 mg/kg twice a day, one week, oral; day 8 vs day 1. The procedure: (§1) Human tumor cell lines MDA-MB-231, MDA-MB-468, DU145, AsPC-1 (these four lines were purchased from ATCC), A549 (purchased from Dainippon Pharmaceutical Co., Ltd.), Lovo, SK-OV-3, H526, PC-3, DLD-1, HCT116 (these six lines were purchased from ATCC), SEKI, HMV-1 (these two lines were purchased from JCRB cell bank, National Institute of Biomedical Innovation), LOX (purchased from AntiCancer) and A375 (purchased from Dainippon Pharmaceutical Co., Ltd.) were cultured with RPMI1640 (containing 10% FBS) in a 5% CO2 gas incubator until they reached about 80% confluence. After culturing, cells from each line were recovered with trypsin-EDTA by conventional procedures. The cells were suspended in phosphate buffer to prepare a cell suspension of 1×10^8 cells/ml or 5×10^7 cells/ml. […] The major axis and minor axis of tumor were measured with a Digimatic Caliper (Mitsutoyo). Then, tumor volume, relative tumor volume and ΔT/C were calculated using the following formulas: Tumor volume (TV)=tumor major axis (mm)×tumor minor axis^2 (mm^2)/2 Relative tumor volume (RTV)=tumor volume on the measurement day/tumor volume on the starting day of administration ΔT/C=(tumor volume at day 8 of administration groups−tumor volume at day 1 of administration groups)/(tumor volume at day 8 of control group−tumor volume at day 1 of control group)×100 […]
(Xenograft models place foreign cells or tissue in a host animal.)

The subject of test [2] is LOX. As to the kind of experiment: Anti-tumor effect in LOX subcutaneous xenograft model. The class given is in vivo, human. The following applies: LOX xenograft in nude mice; methanesulfonate 100 mg/kg twice a day, one week, oral; day 8 vs day 1. The procedure:
as §1

Test [3] concerns A375. As to the kind of experiment: Anti-tumor effect in A375 subcutaneous xenograft model. The class given is in vivo, human. The following applies: A375 xenograft in nude mice; methanesulfonate 100 mg/kg twice a day, one week, oral; day 8 vs day 1. The procedure:
as §1

Test [4] concerns SEKI. In words: Anti-tumor effect in SEKI subcutaneous xenograft model. Particulars: SEKI xenograft in nude mice; methanesulfonate 100 mg/kg twice a day, one week, oral; day 8 vs day 1. The class given is in vivo, human. The procedure: as §1
For test [5], the system named is human non-small cell lung cancer cell strain (PC-9). As to the kind of experiment: Combined application of VEGF receptor kinase inhibitor and EGF inhibitor in PC-9 subcutaneous xenograft model. The class given is in vivo. Particulars: PC-9 xenograft, nude mice, 4 weeks, control 7.51 ± 1.69. The procedure:
Combined Application of VEGF Receptor Kinase Inhibitor and EGF Inhibitor in Human Non-Small Cell Lung Cancer Cell Strain (PC-9) Subcutaneous Xenograft Model (In Vivo) […] Then, cells were recovered with trypsin-EDTA. A cell suspension (5×10^7 cells/nil) was prepared with phosphate buffer. The resultant cell suspension was subcutaneously transplanted into the flank of nude mice (0.1 ml/mouse). […] The major axis and minor axis of tumor were measured with a Digimatic Caliper (Mitsutoyo). Then, tumor volume and relative tumor volume were calculated using the following formulas: […]

The test system of test [6] is human non-small cell lung cancer cell line (A549). In words: Combined application of VEGF receptor kinase inhibitor and EGF inhibitor in A549 subcutaneous xenograft model. The class given is in vivo. The following applies: nude mice, 4 weeks, control 9.94 ± 0.77. The procedure:
Combined Application of VEGF Receptor Kinase Inhibitor and EGF Inhibitor in Human Non-Small Cell Lung Cancer Cell line (A549) Subcutaneous Xenograft Model (In Vivo) […] Then, cells were recovered with trypsin-EDTA. A cell suspension (5×10^7 cells/ml) was prepared with phosphate buffer containing 50% matrigel. The resultant cell suspension was subcutaneously transplanted into the flank of nude (0.1 ml/mouse). From day 10 of transplantation, 4-(3-chloro-4-(cyclopropylaminocarbonyl)aminophenoxy)-7-methoxy-6-quinolinecarboxamide (a methanesulfonate) and erlotinib were orally administered independently or in combination. With respect to 4-(3-chloro-4-(cyclopropylaminocarbonyl)aminophenoxy)-7-methoxy-6-quinolinecarboxamide (a methanesulfonate), it was administered at 3 mg/kg, 10 mg/kg or 30 mg/kg; once a day; for 4 weeks. With respect to erlotinib, it was administered at 50 mg/kg, once a day, for 4 weeks. The major axis and minor axis of tumor were measured with a Digimatic Caliper (Mitsutoyo). Then, tumor volume and relative tumor volume were calculated using the following formulas: […]

Test [7] deals with MDA-MB-231. In words: Anti-tumor effect in MDA-MB-231 subcutaneous xenograft model. The class given is in vivo, human. Particulars: MDA-MB-231 xenograft in nude mice; methanesulfonate 100 mg/kg twice a day, one week, oral; day 8 vs day 1. The procedure: as §1
The test system of test [8] is H526. In words: Anti-tumor effect in H526 subcutaneous xenograft model. Particulars: H526 xenograft in nude mice; methanesulfonate 100 mg/kg twice a day, one week, oral; day 8 vs day 1. The test is classed as in vivo, human. The procedure:
as §1

The test system of test [9] is DLD-1. As to the kind of experiment: Anti-tumor effect in DLD-1 subcutaneous xenograft model. The class given is in vivo, human. Particulars: DLD-1 xenograft in nude mice; methanesulfonate 100 mg/kg twice a day, one week, oral; day 8 vs day 1. The procedure:
as §1

Test [10] relates to PC-3. In words: Anti-tumor effect in PC-3 subcutaneous xenograft model. The class given is in vivo, human. Particulars: PC-3 xenograft in nude mice; methanesulfonate 100 mg/kg twice a day, one week, oral; day 8 vs day 1. The procedure: as §1
For test [11], the system named is DU145. In words: Anti-tumor effect in DU145 subcutaneous xenograft model. The test is classed as in vivo, human. The following applies: DU145 xenograft in nude mice; methanesulfonate 100 mg/kg twice a day, one week, oral; day 8 vs day 1. The procedure: as §1
Test [12] deals with HMV-1. In words: Anti-tumor effect in HMV-1 subcutaneous xenograft model. The class given is in vivo, human. The following applies: HMV-1 xenograft in nude mice; methanesulfonate 100 mg/kg twice a day, one week, oral; day 8 vs day 1. The procedure:
as §1

The test system of test [13] is HCT116. As to the kind of experiment: Anti-tumor effect in HCT116 subcutaneous xenograft model. The test is classed as in vivo, human. The following applies: HCT116 xenograft in nude mice; methanesulfonate 100 mg/kg twice a day, one week, oral; day 8 vs day 1. The procedure:
as §1

The mark [14] stands for this setting: Compound A 10 mg/kg oral once a day.
Setting [15] is: Erlotinib 50 mg/kg oral once a day.

As to `COc1cc2nccc(Oc3ccc(NC(=O)NC4CC4)c(Cl)c3)c2cc1C(N)=O` [Compound A, 4-(3-chloro-4-(cyclopropylaminocarbonyl)aminophenoxy)-7-methoxy-6-quinolinecarboxamide], the ΔT/C in test [1] is listed as < −30%; in [2], > 10%; in test [3], > 10%; in [4], > 10%; in [7] it was < −30%; in test [8], > 10%. Further, the ΔT/C in test [9] is > 10%; in [10] it was > 10%; in [11], < −30%; in test [12], > 10%; in test [13], > 10%. Also, the “Relative Tumor Volume at Day 29 Mean ± Standard Deviation” value is 2.24 ± 0.54 in [5] (setting [14]), 4.34 ± 0.80 in [6] (Compound A 3 mg/kg oral once a day), 2.65 ± 0.45 in test [6] (setting [14]) and 1.65 ± 0.31 in test [6] (Compound A 30 mg/kg oral once a day).

`C#Cc1cccc(Nc2ncnc3cc(OCCOC)c(OCCOC)cc23)c1` [Erlotinib, 4-(3-ethynylphenylamino)-6,7-bis(2-methoxyethoxy)-quinazoline, reference compound]: the entries for the “Relative Tumor Volume at Day 29 Mean ± Standard Deviation” value in test [5] (setting [15]) and in test [6] (setting [15]) were 3.30 ± 0.19 and 5.71 ± 1.84, respectively.

(Values after patent US9006240B2, “Method for assay on the effect of vascularization inhibitor” (Eisai R&D Management Co., Ltd., priority 2005, dated 2015).)
